Measurements taken from paper PMC4503722, “Novel Phenotypic Outcomes Identified for a Public Collection of Approved Drugs from a Publicly Accessible Panel of Assays” (PLoS ONE, 2015).
pIC50: −log10 of the molar value. Read-outs that look alike come from different tables or passages of the source.

Key:
DLD-1 = experiment: cells; type: cell-based; conditions: for pIC50: read-out: Basal_Viability ATP DLD-1 summarized IC50
SW480 = experiment: cells; type: cell-based; conditions: for pIC50: read-out: Basal_Viability ATP SW480 summarized IC50
HCT116 = experiment: cells; type: cell-based; conditions: for pIC50: read-out: Basal_Viability ATP HCT116 summarized IC50
Colo320 = experiment: cells; type: cell-based; conditions: for pIC50: read-out: Basal_Viability ATP Colo 320 summarized IC50
HT-29 = experiment: cells; type: cell-based; conditions: for pIC50: read-out: Basal_Viability ATP HT-29 summarized IC50
RKO = experiment: cells; type: cell-based; conditions: for pIC50: read-out: Basal_Viability ATP RKO summarized IC50
SNU-C1 = experiment: cells; type: cell-based; conditions: for pIC50: read-out: Basal_Viability ATP SNU-C1 summarized IC50
[1] = test system: endothelial tube formation in co-cultures of ECFCs and ADSCs treated with VEGF; experiment: cells; type: cell-based, human; conditions: for pIC50: read-out: VEGF_ADSC\ECFC Angio CD31 TubeArea summarized IC50
HeLa cells = experiment: cells; type: cell-based;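 for Hela CellCycMod PI 4N summarized IC50: value tracks stimulation of 4N DNA content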
[2] = test system: ECFC/ADSC co-culture cell nuclei number; conditions: for pIC50: read-out: VEGF_ADSC\ECFC Angio Hoechst NucArea summarized IC50
[3] = test system: HCT116 cells treated with a GSK3β inhibitor; experiment: cells; type: cell-based; conditions: assay number 26; GSK3b inhibitor pretreated; read-out: GSK3b inh pretreated_Viability ATP HCT116 summarized IC50

CC(C)NCC(O)COc1ccc(CCOCC2CC2)cc1 (stereo not shown) [NCGC00015159-11]
Basal_Viability ATP DLD-1 IC50/EC50 (DLD-1; assay number 23): > 20 µM
Basal_Viability ATP SW480 IC50/EC50 (SW480; assay number 24): > 20 µM
Basal_Viability ATP HCT116 IC50/EC50 (HCT116; assay number 25, basal): > 20 µM
Basal_Viability ATP Colo 320 IC50/EC50 (Colo320; assay number 27): 6.1657 µM
Basal_Viability ATP HT-29 IC50/EC50 (HT-29; assay number 28): > 20 µM
Basal_Viability ATP RKO IC50/EC50 (RKO; assay number 29): > 20 µM
Basal_Viability ATP SNU-C1 IC50/EC50 (SNU-C1; assay number 30): > 20 µM

CCc1cccc2c3c([nH]c12)C(CC)(CC(=O)O)OCC3 (stereo not shown) [NCGC00015399-16]
Basal_Viability ATP DLD-1 IC50/EC50 (DLD-1; assay number 23, basal): > 20 µM
Basal_Viability ATP SW480 IC50/EC50 (SW480; assay number 24, basal): > 20 µM
Basal_Viability ATP HCT116 IC50/EC50 (HCT116; assay number 25, basal): > 20 µM
Basal_Viability ATP Colo 320 IC50/EC50 (Colo320; assay number 27, basal): > 20 µM
Basal_Viability ATP HT-29 IC50/EC50 (HT-29; assay number 28, basal): > 20 µM
Basal_Viability ATP RKO IC50/EC50 (RKO; assay number 29, basal): > 20 µM
Basal_Viability ATP SNU-C1 IC50/EC50 (SNU-C1; assay number 30, basal): > 20 µM

Oc1c(I)cc(Cl)c2cccnc12 [NCGC00016391-13]
pIC50 [1]: < 5.00
pIC50 (HeLa cells; read-out: Hela CellCycMod PI 2N summarized IC50): < 5.00
pIC50 (HeLa cells; read-out: Hela CellCycMod PI 4N summarized IC50): < 5.00
pIC50 (HeLa cells; read-out: Hela CellCycMod PI Cell Number summarized IC50): < 5.00
pIC50 (HeLa cells; read-out: Hela CellCycMod PI MI summarized IC50): < 5.00
pIC50 (DLD-1): 6.46
pIC50 (SW480): 6.36
pIC50 (HCT116): 6.41
pIC50 (Colo320): 6.23
pIC50 (HT-29): 4.73
pIC50 (SNU-C1): 6.32
pIC50 [2]: < 5.00

Cc1c(NC(=O)c2cccnc2)c(=O)n(-c2ccccc2)n1C [NCGC00016605-08]
IC50/EC50, Basal_Viability ATP DLD-1 (assay number 23) (DLD-1; basal): > 20 µM
IC50/EC50, Basal_Viability ATP SW480 (assay number 24) (SW480; basal): > 20 µM
IC50/EC50, Basal_Viability ATP HCT116 (assay number 25) (HCT116; basal): > 20 µM
IC50/EC50, Basal_Viability ATP Colo 320 (assay number 27) (Colo320; basal): > 20 µM
IC50/EC50, Basal_Viability ATP HT-29 (assay number 28) (HT-29; basal): > 20 µM
IC50/EC50, Basal_Viability ATP RKO (assay number 29) (RKO; basal): > 20 µM
IC50/EC50, Basal_Viability ATP SNU-C1 (assay number 30) (SNU-C1; basal): > 20 µM

O=C(O)c1ccccc1OP(=O)(O)O [NCGC00016668-06]
pIC50 (DLD-1; assay number 23, basal): < 4.70
pIC50 (SW480; assay number 24, basal): < 4.70
pIC50 (HCT116; assay number 25, basal): < 4.70
pIC50 (Colo320; assay number 27, basal): < 4.70
pIC50 (HT-29; assay number 28, basal): < 4.70
pIC50 (RKO; assay number 29, basal): < 4.70
pIC50 (SNU-C1; assay number 30, basal): < 4.70

CCn1cc(C(=O)O)c(=O)c2cnc(N3CCNCC3)nc21 [NCGC00016866-11]
Basal_Viability ATP DLD-1 IC50/EC50 (DLD-1; assay number 23, basal): > 20 µM
Basal_Viability ATP SW480 IC50/EC50 (SW480; assay number 24, basal): > 20 µM
Basal_Viability ATP HCT116 IC50/EC50 (HCT116; assay number 25, basal): > 20 µM
Basal_Viability ATP Colo 320 IC50/EC50 (Colo320; assay number 27, basal): > 20 µM
Basal_Viability ATP HT-29 IC50/EC50 (HT-29; assay number 28, basal): > 20 µM
Basal_Viability ATP RKO IC50/EC50 (RKO; assay number 29, basal): > 20 µM
Basal_Viability ATP SNU-C1 IC50/EC50 (SNU-C1; assay number 30, basal): > 20 µM

O=C(O)c1ccccc1S [NCGC00018107-05]
pIC50 (DLD-1; assay number 23, basal): < 4.70
pIC50 (SW480; assay number 24, basal): < 4.70
pIC50 (HCT116; assay number 25, basal): < 4.70
pIC50 (Colo320; assay number 27, basal): < 4.70
pIC50 (HT-29; assay number 28, basal): < 4.70
pIC50 (RKO; assay number 29, basal): < 4.70
pIC50 (SNU-C1; assay number 30, basal): < 4.70

[N-]=[N+]=CC(=O)OC[C@H](N)C(=O)O [NCGC00021876-04]
Basal_Viability ATP DLD-1 IC50/EC50 (DLD-1; assay number 23, basal): > 20 µM
Basal_Viability ATP SW480 IC50/EC50 (SW480; assay number 24, basal): > 20 µM
Basal_Viability ATP HCT116 IC50/EC50 (HCT116; assay number 25, basal): > 20 µM
Basal_Viability ATP HT-29 IC50/EC50 (HT-29; assay number 28, basal): > 20 µM
Basal_Viability ATP RKO IC50/EC50 (RKO; assay number 29, basal): > 20 µM
Basal_Viability ATP SNU-C1 IC50/EC50 (SNU-C1; assay number 30, basal): > 20 µM

Cc1ccc(Cl)c(Nc2ccccc2C(=O)[O-])c1Cl.[Na+] [NCGC00023217-08]
Basal_Viability ATP DLD-1 IC50/EC50 (DLD-1; assay number 23, basal): 15.1129 µM
Basal_Viability ATP SW480 IC50/EC50 (SW480; assay number 24, basal): > 20 µM
Basal_Viability ATP HCT116 IC50/EC50 (HCT116; assay number 25, basal): > 20 µM
Basal_Viability ATP Colo 320 IC50/EC50 (Colo320; assay number 27, basal): > 20 µM
Basal_Viability ATP HT-29 IC50/EC50 (HT-29; assay number 28, basal): > 20 µM
Basal_Viability ATP RKO IC50/EC50 (RKO; assay number 29, basal): > 20 µM
Basal_Viability ATP SNU-C1 IC50/EC50 (SNU-C1; assay number 30, basal): > 20 µM

NC(=O)N/N=C/c1ccc([N+](=O)[O-])o1 [NCGC00090686-11]
pIC50 (DLD-1; assay number 23, basal): < 4.70
pIC50 (SW480; assay number 24, basal): < 4.70
pIC50 (HCT116; assay number 25, basal): < 4.70
pIC50 (Colo320; assay number 27, basal): < 4.70
pIC50 (HT-29; assay number 28, basal): < 4.70
pIC50 (RKO; assay number 29, basal): < 4.70
pIC50 (SNU-C1; assay number 30, basal): < 4.70

Oc1c(Cl)cc(Cl)c(Cl)c1Cc1c(O)c(Cl)cc(Cl)c1Cl [NCGC00091195-08]
pIC50 (DLD-1): 7.80
pIC50 (SW480): 8.52
pIC50 (HCT116): 7.51
pIC50 (Colo320): 7.24
pIC50 (HT-29): 6.34
pIC50 (RKO): 6.96
pIC50 (SNU-C1): 7.49

CCCCCCOc1ccccc1C(N)=O [NCGC00095049-04]
IC50/EC50, Basal_Viability ATP DLD-1 (assay number 23) (DLD-1; basal): 8.6657 µM
IC50/EC50, Basal_Viability ATP SW480 (assay number 24) (SW480; basal): > 20 µM
IC50/EC50, Basal_Viability ATP HCT116 (assay number 25) (HCT116; basal): > 6.6667 µM
IC50/EC50, Basal_Viability ATP Colo 320 (assay number 27) (Colo320; basal): > 20 µM
IC50/EC50, Basal_Viability ATP HT-29 (assay number 28) (HT-29; basal): > 20 µM
IC50/EC50, Basal_Viability ATP RKO (assay number 29) (RKO; basal): > 6.6667 µM
IC50/EC50, Basal_Viability ATP SNU-C1 (assay number 30) (SNU-C1; basal): 9.3567 µM

CN(CCOc1ccc(CC2SC(=O)NC2=O)cc1)c1ccccn1 (stereo not shown) [NCGC00095124-08]
Basal_Viability ATP DLD-1 IC50/EC50 (DLD-1; assay number 23, basal): > 20 µM
Basal_Viability ATP SW480 IC50/EC50 (SW480; assay number 24, basal): > 20 µM
Basal_Viability ATP HCT116 IC50/EC50 (HCT116; assay number 25, basal): > 20 µM
Basal_Viability ATP Colo 320 IC50/EC50 (Colo320; assay number 27, basal): > 20 µM
Basal_Viability ATP HT-29 IC50/EC50 (HT-29; assay number 28, basal): > 20 µM
Basal_Viability ATP RKO IC50/EC50 (RKO; assay number 29, basal): > 20 µM
Basal_Viability ATP SNU-C1 IC50/EC50 (SNU-C1; assay number 30, basal): 8.6851 µM

Cc1nc2ccccc2n1Cc1ccc(Cl)cc1 [NCGC00160416-02]
VEGF_ADSC\ECFC Angio CD31 TubeArea IC50/EC50 [1]: 7.3825 µM
Hela CellCycMod PI 2N IC50/EC50 (HeLa cells; assay number 14, 2N): > 10 µM
Hela CellCycMod PI 4N IC50/EC50 (HeLa cells; assay number 16, 4N): > 10 µM
Hela CellCycMod PI MI IC50/EC50 (HeLa cells; assay number 17, MI): > 10 µM
Hela CellCycMod PI Cell Number IC50/EC50 (HeLa cells; assay number 18, cell number): 0.03183 µM
Basal_Viability ATP DLD-1 IC50/EC50 (DLD-1; assay number 23, basal): > 20 µM
Basal_Viability ATP SW480 IC50/EC50 (SW480; assay number 24, basal): 5.3305 µM
Basal_Viability ATP HCT116 IC50/EC50 (HCT116; assay number 25, basal): 1.219 µM
Basal_Viability ATP Colo 320 IC50/EC50 (Colo320; assay number 27, basal): 15.1764 µM
Basal_Viability ATP HT-29 IC50/EC50 (HT-29; assay number 28, basal): > 20 µM
Basal_Viability ATP SNU-C1 IC50/EC50 (SNU-C1; assay number 30, basal): > 20 µM
VEGF_ADSC\ECFC Angio Hoechst NucArea IC50/EC50 [2]: > 10 µM

CCCCCCCCCCCC[N+](C)(C)Cc1ccccc1 [NCGC00164245-03]
pIC50 [1]: < 5.00
pIC50 (HeLa cells; assay number 14, 2N, read-out: Hela CellCycMod PI 2N summarized IC50): < 5.00
pIC50 (HeLa cells; assay number 15, S phase, read-out: Hela CellCycMod PI S Phase summarized IC50): < 5.00
pIC50 (HeLa cells; assay number 16, 4N, read-out: Hela CellCycMod PI 4N summarized IC50): < 5.00
pIC50 (HeLa cells; assay number 17, MI, read-out: Hela CellCycMod PI MI summarized IC50): < 5.00
pIC50 (HeLa cells; assay number 18, cell number, read-out: Hela CellCycMod PI Cell Number summarized IC50): < 5.00
pIC50 (DLD-1; assay number 23, basal): 6.13
pIC50 [3]: < 4.70
pIC50 (HT-29; assay number 28, basal): 6.33
pIC50 (SNU-C1; assay number 30, basal): 7.70
pIC50 [2]: 5.16
